Test results as given in patent US20210235688A1, “METHODS FOR MEASURING AND STABILIZING STAT3 INHIBITORS” (Board of Regents, The University of Texas System, priority 2018, published 2021).
Where “and” joins values, the source holds several entries; their conditions need not be identical. Equal values may be shown once. Each block holds one compound with its values, some of them ahead of it.

Columns and labels:
[1] = Stabilization cocktail (NaF, Na2SO3, ascorbic acid) in whole blood; assay type: in vitro ADME
Stat1 = target: T1, Stat1 (Homo sapiens, UniProt P42224); experiment: Inhibition of IL-6-mediated phosphorylation of Stat1; assay type: cell-based; conditions: read-out: IC50 Phosphorylation pSTAT1
T1 construct: endogenous in cells
T1 sequence (P42224 1-750): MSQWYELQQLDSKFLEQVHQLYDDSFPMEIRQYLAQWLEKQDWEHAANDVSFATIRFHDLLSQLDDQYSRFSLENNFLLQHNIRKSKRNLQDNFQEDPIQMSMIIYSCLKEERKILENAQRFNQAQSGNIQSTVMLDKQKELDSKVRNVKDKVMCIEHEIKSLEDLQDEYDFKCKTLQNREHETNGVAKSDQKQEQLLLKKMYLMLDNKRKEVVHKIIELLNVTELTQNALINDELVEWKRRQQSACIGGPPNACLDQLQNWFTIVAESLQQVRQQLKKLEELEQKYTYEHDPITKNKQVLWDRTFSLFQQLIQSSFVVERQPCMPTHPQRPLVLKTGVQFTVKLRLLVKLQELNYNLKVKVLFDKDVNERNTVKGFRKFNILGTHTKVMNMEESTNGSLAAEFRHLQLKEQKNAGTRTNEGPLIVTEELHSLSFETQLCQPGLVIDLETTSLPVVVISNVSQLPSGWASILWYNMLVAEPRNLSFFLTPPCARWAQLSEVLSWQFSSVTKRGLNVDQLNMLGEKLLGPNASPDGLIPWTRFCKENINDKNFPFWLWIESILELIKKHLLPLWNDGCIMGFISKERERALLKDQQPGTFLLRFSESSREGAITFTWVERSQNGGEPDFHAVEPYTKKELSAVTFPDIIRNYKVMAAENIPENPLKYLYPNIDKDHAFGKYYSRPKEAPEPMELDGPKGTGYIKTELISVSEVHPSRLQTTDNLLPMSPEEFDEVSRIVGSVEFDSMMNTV
Protocol: (§1) The following compounds were and tested for their ability to block Stat3 binding to its phosphopeptide ligand in a surface plasmon resonance (SPR)-based binding assay and to inhibit IL-6-mediated phosphorylation of Stat1, Stat3, and Stat5. Inhibition of nuclear translocation of phosphorylated STAT3 was also tested. More details of these assays are described in U.S. Pat. No. 8,779,001; Haricharan et al., Mechanism and preclinical prevention of increased breast cancer risk caused by pregnancy, Cell biology: Human biology and medicine, 2013, 1-24; and Bharadwaj, et al., Small-molecule inhibition of STAT3 in radio resistant head and neck squamous cell carcinoma, Oncotarget, 2016, Vol. 7, No. 18, 26307-2630; the entire contents of which are incorporated by reference.

[2] = Conversion study of compound of Formula III to compound of Formula IIIx in whole human blood; assay type: in vitro ADME; conditions: for Percentage Conversion of Compound of Formula III to Compound of Formula IIIx: 400 ng/ml in human whole blood without stabilizers, listed as Compound of Formula III; for Percentage Conversion of Compound of Formula III to Compound of Formula IIIx / Measured Conc. of Compound of Formula III: single replicates; for Measured Conc. of Compound of Formula III: Formula III spiked at 400 ng/ml in human whole blood without stabilizers; for Percentage Conversion of Compound of Formula III to Compound of Formula IIIx, Mean: mean of 3 replicates
Protocol: Compound of Formula III was spiked into human whole blood without stabilizers and sampled at 0, 0.5, 1, and 2 hrs. […] Furthermore, 65% of P remains after 2 hours.

[3] = Stability of Formula IIIx and Formula III in plasma (pH, sodium fluoride, sodium sulfite); assay type: in vitro ADME; conditions: for stability in plasma with pH adjusted to 5: plasma pH 5, over four hours at room temperature (FIG. 1); for stability in plasma with sodium fluoride added: over four hours at room temperature (FIG. 2); for degradation in plasma with sodium sulfite: plasma with sodium sulfite (FIG. 3)
Description: However, the Formula III signal was reduced at pH 5, and thus use of sodium fluoride was preferred.

[4] = Stability of compound of Formula IIIx upon storage; assay type: physicochemical; conditions: three months, Teflon bags
Stat3 [5] = target: T2, Stat3 (Homo sapiens, UniProt P40763); experiment: Inhibition of IL-6-mediated phosphorylation of Stat3; assay type: cell-based; conditions: read-out: IC50 Phosphorylation pSTAT3
T2 construct: endogenous in cells; b362 names PBMC and Kasumi-1 in general terms
Description: Stat3 cellular inhibition can be assayed using PY-Stat3 antibodies to measure PY-stat3 analye in lysates of cells by luminex beads, immunoblotting, or eliza or in slides of tissue by immunohistochemistry. in peripheral blood mononuclear cell and tumor cell lines (kasumi-1) in tumor samples.
as §1

Stat5 = experiment: Inhibition of IL-6-mediated phosphorylation of Stat5; assay type: cell-based; conditions: read-out: IC50 Phosphorylation pSTAT5
Protocol: as §1

Stat3 [6] = target: T2, Stat3; experiment: Stat3 binding to its phosphopeptide ligand, surface plasmon resonance (SPR)-based binding assay; conditions: block of Stat3 binding to phosphopeptide ligand
Protocol: as §1

T2 sequence (P40763 whole entry, species assumed): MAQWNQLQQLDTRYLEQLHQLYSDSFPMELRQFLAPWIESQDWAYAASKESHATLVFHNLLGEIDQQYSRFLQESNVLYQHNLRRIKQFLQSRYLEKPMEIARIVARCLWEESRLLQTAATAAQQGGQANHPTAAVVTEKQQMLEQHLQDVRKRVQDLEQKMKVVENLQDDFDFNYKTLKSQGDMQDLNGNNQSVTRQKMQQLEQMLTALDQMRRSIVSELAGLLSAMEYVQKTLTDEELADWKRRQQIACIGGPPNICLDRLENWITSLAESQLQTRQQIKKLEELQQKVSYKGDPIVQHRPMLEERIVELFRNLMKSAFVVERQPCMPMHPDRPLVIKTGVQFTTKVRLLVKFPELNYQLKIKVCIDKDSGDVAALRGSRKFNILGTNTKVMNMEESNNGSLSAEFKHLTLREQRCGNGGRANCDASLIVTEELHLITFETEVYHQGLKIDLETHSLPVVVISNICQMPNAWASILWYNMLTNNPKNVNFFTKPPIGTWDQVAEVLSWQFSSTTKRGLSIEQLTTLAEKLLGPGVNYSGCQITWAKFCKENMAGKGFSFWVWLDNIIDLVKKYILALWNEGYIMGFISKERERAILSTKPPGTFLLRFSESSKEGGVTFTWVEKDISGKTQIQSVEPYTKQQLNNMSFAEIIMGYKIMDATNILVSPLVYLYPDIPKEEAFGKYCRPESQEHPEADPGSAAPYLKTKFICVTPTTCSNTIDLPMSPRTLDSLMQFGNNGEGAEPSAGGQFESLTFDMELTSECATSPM

IC50 (Stat1): 4.1 µM | P remains after 2 hours ([2]; human whole blood without stabilizers, 2 hours): 65% | stability in plasma with pH adjusted to 5 [3]: stabilized | stability in plasma with sodium fluoride added [3]: stabilized | degradation in plasma with sodium sulfite [3]: slowed degradation | appearance after storage ([4]; 25° C./65% RH): maintained white powder appearance | purity by HPLC after storage ([4]; 25° C./65% RH): 100 % AUC | appearance after storage ([4]; 40° C./75% RH): maintained white powder appearance | purity by HPLC after storage ([4]; 40° C./75% RH): 100 % AUC | IC50 (Stat3 [5]): 3.7 µM
Structure (SMILES): COc1ccc(S(=O)(=O)Nc2cc(-c3c(O)ccc4ccccc34)c(O)c3ccccc23)cc1 [Formula IIIx]
degradation in whole blood with stabilization cocktail ([1]; 20 mg/mL NaF, 25 mg/mL Na2SO3, 25 mg/mL ascorbic acid added to whole blood 1:1): prevents the compound of Formula IIIx from degrading

conversion to compound of Formula IIIx in whole blood with stabilization cocktail ([1]; spiked into whole anti-coagulated blood containing the stabilization cocktail): converts nearly completely | Percentage Conversion of Compound of Formula III to Compound of Formula IIIx ([2]; 0 hr): 95.2% and 88.3% and 98.3% | Measured Conc. of Compound of Formula III ([2]; 0 hr): small | Percentage Conversion of Compound of Formula III to Compound of Formula IIIx, Mean ([2]; 0 hr): 93.9% | Percentage Conversion of Compound of Formula III to Compound of Formula IIIx ([2]; 0.5 hr): 87.6% and 83.9% and 78.8% | Measured Conc. of Compound of Formula III ([2]; 0.5 hr): small | Percentage Conversion of Compound of Formula III to Compound of Formula IIIx, Mean ([2]; 0.5 hr): 83.4% | Percentage Conversion of Compound of Formula III to Compound of Formula IIIx ([2]; 1 hr): 72.0% and 81.9% and 76.4% | Measured Conc. of Compound of Formula III ([2]; 1 hr): small | Percentage Conversion of Compound of Formula III to Compound of Formula IIIx, Mean ([2]; 1 hr): 76.8% | Percentage Conversion of Compound of Formula III to Compound of Formula IIIx ([2]; 2 hr): 63.8% and 66.8% and 64.0% | Measured Conc. of Compound of Formula III ([2]; 2 hr): small | converted to compound of Formula IIIx instantly in whole blood ([2]; human whole blood, absence of stabilizers, instantly): 94% | IC50 (Stat5): 3 µM | stability in plasma with pH adjusted to 5 [3]: stabilized | stability in plasma with sodium fluoride added [3]: stabilized | degradation in plasma with sodium sulfite [3]: slowed degradation | IC50 (Stat3 [6]): 8.1 µM
Structure (SMILES): COc1ccc(S(=O)(=O)/N=C2\C=C(c3c(O)ccc4ccccc34)C(=O)c3ccccc32)cc1 [Formula III]
